Test results as given in PMC3444172 (The Journal of organic chemistry, 2012).
Entries after “also recorded” stand apart in the source; their conditions may differ. Where two headings read alike, the source gives them in different places.

How the values were obtained:
Format in all cases: biochemical
[1] = target: M. tuberculosis lumazine synthase (recombinant homopentameric) (Mycobacterium tuberculosis, UniProt P9WHE9); settings: for inhibitory activity in words: lumazine synthase inhibition, qualitative statement
Sequence of M. tuberculosis lumazine synthase (recombinant homopentameric) (P9WHE9 whole entry): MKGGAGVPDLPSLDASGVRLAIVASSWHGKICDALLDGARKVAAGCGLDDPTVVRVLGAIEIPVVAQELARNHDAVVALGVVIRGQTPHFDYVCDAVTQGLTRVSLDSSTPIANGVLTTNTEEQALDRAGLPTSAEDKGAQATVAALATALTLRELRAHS

[2] = target: M. tuberculosis riboflavin synthase (recombinant) (Mycobacterium tuberculosis, UniProt P9WK35); experiment: Kinetic assay of riboflavin synthase inhibitors, M. tuberculosis enzyme
Sequence of M. tuberculosis riboflavin synthase (recombinant) (P9WK35 whole entry): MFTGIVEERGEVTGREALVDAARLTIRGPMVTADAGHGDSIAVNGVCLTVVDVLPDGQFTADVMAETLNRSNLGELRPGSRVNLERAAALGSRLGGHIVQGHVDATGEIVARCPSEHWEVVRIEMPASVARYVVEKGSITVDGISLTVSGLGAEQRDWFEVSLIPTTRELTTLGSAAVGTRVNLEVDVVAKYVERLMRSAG

[3] = target: E. coli riboflavin synthase (recombinant) (Escherichia coli, UniProt P0AFU8); experiment: Kinetic assay of riboflavin synthase inhibitors, E. coli enzyme; settings: for Kcat (rate constant ES → E + P) / Ks (substrate dissociation constant, E + S ⇌ ES) / Kis (ES + I ⇌ ESI): substrate 3 varied, Tris·HCl pH 7.0
Sequence of E. coli riboflavin synthase (recombinant) (P0AFU8 whole entry): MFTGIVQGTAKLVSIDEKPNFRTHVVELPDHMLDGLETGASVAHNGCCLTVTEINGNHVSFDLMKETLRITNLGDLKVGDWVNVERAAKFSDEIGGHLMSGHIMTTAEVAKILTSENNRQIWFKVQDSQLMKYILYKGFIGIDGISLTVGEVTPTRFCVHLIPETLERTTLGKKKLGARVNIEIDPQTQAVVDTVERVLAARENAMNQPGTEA

[4] = target: T1, S. pombe lumazine synthase (recombinant homopentameric) (Schizosaccharomyces pombe, UniProt Q9UUB1); experiment: Kinetic assay of lumazine synthase inhibitors, S. pombe enzyme; settings: for Kcat (rate constant ES → E + P) / Kis (ES + I ⇌ ESI) / Ks (substrate dissociation constant, E + S ⇌ ES): substrate 2 constant, substrate 1 varied, Tris·HCl pH 7.0
T1 sequence (Q9UUB1 1-159): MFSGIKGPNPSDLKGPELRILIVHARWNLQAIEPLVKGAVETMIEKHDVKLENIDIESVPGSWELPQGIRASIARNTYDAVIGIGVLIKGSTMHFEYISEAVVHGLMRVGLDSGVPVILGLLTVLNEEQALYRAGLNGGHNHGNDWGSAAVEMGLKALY

[5] = substrate 2 constant, substrate 1 varied, Tris·HCl pH 7.0
[6] = substrate 3 varied, Tris·HCl pH 7.0

SMILES | Mechanism of inhibition [1] | inhibitory activity in words [1] | Kcat (rate constant ES → E + P) [1, 5] [m^−1] | Ki (E + I ⇌ EI) [1, 5] [µM] | Kis (ES + I ⇌ ESI) [1, 5] [µM] | Ks (substrate dissociation constant, E + S ⇌ ES) [1, 5] [µM] | Mechanism of inhibition [2] | Kcat (rate constant ES → E + P) [2, 6] [m^−1] | Kis (ES + I ⇌ ESI) [2, 6] [µM] | Ks (substrate dissociation constant, E + S ⇌ ES) [2, 6] [µM] | Mechanism of inhibition [3] | Kcat (rate constant ES → E + P) [3] [m^−1] | Ks (substrate dissociation constant, E + S ⇌ ES) [3] [µM] | Mechanism of inhibition [4] | Kcat (rate constant ES → E + P) [4] [m^−1] | Kis (ES + I ⇌ ESI) [4] [µM] | Ks (substrate dissociation constant, E + S ⇌ ES) [4] [µM] | Kcat (rate constant ES → E + P) ([1]; pH 7) [m^−1] | Kis (ES + I ⇌ ESI) [3] [µM] | Ki (E + I ⇌ EI) [2, 6]
C=C(C)C(=O)Nc1c(NC[C@H](O)[C@H](O)[C@H](O)CO)[nH]c(=O)[nH]c1=O [Compound 56, N-[2,4-Dioxo-6-((2S,3S,4R)-2,3,4,5-tetrahydroxypentylamino]-1,2,3,4-tetrahydropyrimidin-5-yl)methacrylamide] | Uncompetitive | inactive | 0.52 ± 0.02 | > 1000 | > 1000 | 19 ± 2 | Partial | 0.57 ± 0.02 | 35 ± 14 | 7.0 ± 0.6 | – | – | – | – | – | – | – | – | – | –
O=c1[nH]c(OC[C@H](O)[C@H](O)[C@H](O)CO)c([N+](=O)[O-])c(=O)[nH]1 [Compound 22, 5-Nitro-6-((2S,3R,4R)-2,3,4,5-tetrahydroxypentyloxy)pyrimidine-2,4(1H,3H)-dione] | Competitive | – | – | – | – | 25 ± 2 | Partial | 0.26 ± 0.01 | 26 ± 6 | 7.1 ± 0.7 | Competitive | 3.3 ± 0.01 | 2.6 ± 0.2 | Partial | 1.4 ± 0.0 | 110 ± 40 | 1.4 ± 0.1 | 0.19 ± 0.00 | – | –
Nc1c(OC[C@@H](O)[C@H](O)[C@@H](O)CO)[nH]c(=O)[nH]c1=O [Compound 29, 5-Amino-6-((2R,3R,4S)-2,3,4,5-tetrahydroxypentyloxy)pyrimidine-2,4(1H,3H)-dione] | Uncompetitive | – | – | – | >1000 | 27 ± 2 | Uncompetitive | 0.25 ± 0.01 | 577 ± 121 | 5.6 ± 0.5 | Uncompetitive | 3.2 ± 0.1 | 2.5 ± 0.1 | Partial | 1.3 ± 0.0 | 43 ± 8 | 1.2 ± 0.1 | 0.18 ± 0.01 | >1000 | –
C=C(C)C(=O)Nc1c(OC[C@H](O)[C@H](O)[C@H](O)CO)[nH]c(=O)[nH]c1=O [Compound 46] | Uncompetitive | – | – | > 1000 | >1000 | 12 ± 1 | Uncompetitive | 0.58 ± 0.01 | >1000 | 9.2 ± 0.6 | – | – | – | – | – | – | – | 0.57 ± 0.01 | – | –
O=C(CCl)Nc1c(NC[C@H](O)[C@H](O)[C@H](O)CO)[nH]c(=O)[nH]c1=O [Compound 63, 2-Chloro-N-(2,4-dioxo-6-((2S,3S,4R)-2,3,4,5-tetrahydroxypentylamino)-1,2,3,4-tetrahydropyrimidin-5-yl)acetamide] | Partial | – | 0.62 ± 0.02 | – | 53 ± 12 | 24 ± 2 | Uncompetitive | 0.66 ± 0.01 | > 1000 | 8.6 ± 0.4 | – | – | – | – | – | – | – | – | – | –
CCOC(=O)C(=O)Nc1c(OC[C@H](O)[C@H](O)[C@H](O)CO)[nH]c(=O)[nH]c1=O [Compound 36, Ethyl 2-(2,4-dioxo-6-((2S,3R,4R)-2,3,4,5-tetrahydroxypentyloxy)1,2,3,4-tetrahydropyrimidin-5-ylamino)-2-oxoacetate] | Uncompetitive | completely inactive; also recorded: totally inactive | – | > 1000 | >1000 | 34 ± 5 | Uncompetitive | 0.25 ± 0.01 | >1000 | 5.0 ± 0.5 | Uncompetitive | 5.8 ± 0.2 | 3.0 ± 0.3 | Uncompetitive | 2.7 ± 0.1 | >1000 | 6.4 ± 0.6 | 0.26 ± 0.01 | >1000 | –
C=C(C)C(=O)Nc1c(SC[C@H](O)[C@H](O)[C@H](O)CO)[nH]c(=O)[nH]c1=O [Compound 51] | Competitive | – | – | – | – | 17 ± 1 | Uncompetitive | 0.84 ± 0.01 | > 1000 | 10 ± 0 | – | – | – | – | – | – | – | 0.92 ± 0.03 | – | –
CC(C)C(=O)Nc1c(OC[C@H](O)[C@H](O)[C@H](O)CO)[nH]c(=O)[nH]c1=O [Compound 40] | Uncompetitive | totally inactive | – | – | 766 ± 97 | 16 ± 1 | Uncompetitive | 0.84 ± 0.02 | 698 ± 108 | 9.3 ± 0.6 | – | – | – | – | – | – | – | 0.59 ± 0.01 | – | –
O=C(CC(F)(F)F)Nc1c(NC[C@H](O)[C@H](O)[C@H](O)CO)[nH]c(=O)[nH]c1=O [Compound 66, N-(2,4-Dioxo-6-((2S,3S,4R)-2,3,4,5-tetrahydroxypentylamino)-1,2,3,4-tetrahydropyrimidin-5-yl)-3,3,3-trifluoropropanamide] | Partial | – | 0.76 ± 0.02 | – | 309 ± 125 | 20 ± 1 | Uncompetitive | 0.18 ± 0.1 | > 1000 | 6.6 ± 0.3 | – | – | – | – | – | – | – | – | – | –
CC1(O)C(=O)Nc2c([nH]c(=O)[nH]c2=O)N1C[C@H](O)[C@H](O)[C@H](O)CO (stereo partly drawn) [Compound 69, 7-Hydroxy-7-methyl-8-[(2S,3S,4R)-2,3,4,5-tetrahydroxypentyl)-7,8-dihydropteridin-2,4,6(1H, 3H, 5H)-trione] | Competitive | – | 0.59 ± 0.02 | – | – | 19 ± 2 | Competitive | 0.67 ± 0.02 | – | 8.9 ± 0.7 | – | – | – | – | – | – | – | – | – | submicromolar
CC(Cl)C(=O)Nc1c(NC[C@H](O)[C@H](O)[C@H](O)CO)[nH]c(=O)[nH]c1=O (stereo partly drawn) [Compound 60, 2-Chloro-N-(2,4-dioxo-6-((2S,3S,4R)-2,3,4,5-tetrahydroxypentylamino)1,2,3,4-tetrahydropyrimidin-5-yl)propanamide] | Competitive | – | 0.85 ± 0.03 | – | – | 17 ± 1 | Competitive | 0.72 ± 0.01 | – | 11 ± 1 | – | – | – | – | – | – | – | – | – | –
CCC(=O)Nc1c(OC[C@H](O)[C@H](O)[C@H](O)CO)[nH]c(=O)[nH]c1=O [Compound 43] | Uncompetitive | totally inactive | – | – | – | 18 ± 2 | Uncompetitive | 0.21 ± 0.00 | >1000 | 4.4 ± 0.2 | – | – | – | – | – | – | – | 0.39 ± 0.00 | – | –
C=C(C)C(=O)Nc1c(Cl)[nH]c(=O)[nH]c1=O [Compound 78, N-(6-Chloro-2,4-dioxo-1,2,3,4-tetrahydropyrimidin-5-yl)methacrylamide] | Uncompetitive | – | 0.53 ± 0.03 | – | >1000 | 18 ± 2 | Uncompetitive | 0.58 ± 0.4 | 694 ± 88 | 8.6 ± 0.4 | – | – | – | – | – | – | – | – | – | –
CCC(=O)Nc1c(SC[C@H](O)[C@H](O)[C@H](O)CO)[nH]c(=O)[nH]c1=O [Compound 49] | Competitive | – | – | – | 128 | 11 ± 1 | Uncompetitive | 0.76 ± 0.01 | > 1000 | 10 ± 1 | – | – | – | – | – | – | – | 0.65 ± 0.01 | – | –
